From PubChem BioAssay (NCI)
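Test compounds were applied to cells in 96-well plates for 48 hours at 5 doses. The concentration for 50% growth inhibition is given as GI50. TGI marks complete inhibition of growth.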

Key:
Experiment in all cases: NCI tumour cell line growth inhibition, 48 h
786-0 renal = test system: 786-0 renal
HOP-92 NSCLC = test system: HOP-92 NSCLC
RPMI-8226 leukemia = test system: RPMI-8226 leukemia
EKVX NSCLC = test system: EKVX NSCLC
IGROV1 ovarian = test system: IGROV1 ovarian
UO-31 renal = test system: UO-31 renal
HCT-15 colon = test system: HCT-15 colon
SK-OV-3 ovarian = test system: SK-OV-3 ovarian
RXF 393 renal = test system: RXF 393 renal
MALME-3M melanoma = test system: MALME-3M melanoma
CAKI-1 renal = test system: CAKI-1 renal
NCI-H522 lung = test system: NCI-H522 lung
SK-MEL-5 melanoma = test system: SK-MEL-5 melanoma
DU-145 prostate = test system: DU-145 prostate
HS 578T breast = test system: HS 578T breast
UACC-257 melanoma = test system: UACC-257 melanoma
SW-620 colon = test system: SW-620 colon
SK-MEL-28 melanoma = test system: SK-MEL-28 melanoma
M14 melanoma = test system: M14 melanoma
ACHN renal = test system: ACHN renal
A498 renal = test system: A498 renal
SF-295 CNS = test system: SF-295 CNS
KM12 colon = test system: KM12 colon
T-47D breast = test system: T-47D breast
SR leukemia = test system: SR leukemia
PC-3 prostate = test system: PC-3 prostate
SF-268 CNS = test system: SF-268 CNS
LOX IMVI melanoma = test system: LOX IMVI melanoma
U251 CNS = test system: U251 CNS
SNB-75 CNS = test system: SNB-75 CNS
CCRF-CEM leukemia = test system: CCRF-CEM leukemia
HCT-116 colon = test system: HCT-116 colon
UACC-62 melanoma = test system: UACC-62 melanoma
MCF7 breast = test system: MCF7 breast
HL-60(TB) leukemia = test system: HL-60(TB) leukemia
SK-MEL-2 melanoma = test system: SK-MEL-2 melanoma
MOLT-4 leukemia = test system: MOLT-4 leukemia
TK-10 renal = test system: TK-10 renal
MDA-MB-231 breast = test system: MDA-MB-231 breast
OVCAR-3 ovarian = test system: OVCAR-3 ovarian
NCI/ADR-RES ovarian = test system: NCI/ADR-RES ovarian
A549 NSCLC = test system: A549 NSCLC
COLO 205 colon = test system: COLO 205 colon
NCI-H460 lung = test system: NCI-H460 lung
MDA-MB-435 = test system: MDA-MB-435
OVCAR-4 ovarian = test system: OVCAR-4 ovarian
SNB-19 CNS = test system: SNB-19 CNS
SN12C renal = test system: SN12C renal
SF-539 CNS = test system: SF-539 CNS
NCI-H226 lung = test system: NCI-H226 lung
HT29 colon = test system: HT29 colon
OVCAR-8 ovarian = test system: OVCAR-8 ovarian
HCC-2998 colon = test system: HCC-2998 colon
NCI-H23 lung = test system: NCI-H23 lung
OVCAR-5 ovarian = test system: OVCAR-5 ovarian
HOP-62 NSCLC = test system: HOP-62 NSCLC
K-562 leukemia = test system: K-562 leukemia
BT-549 breast = test system: BT-549 breast

## COc1cc2c3c(n(CCCNC4CCC4)c(=O)c2cc1OC)-c1cc2c(cc1C3=O)OCO2
786-0 renal
  GI50: 1.54 µM
  TGI: 3.05 µM
HOP-92 NSCLC
  GI50: 5.26 µM
  TGI: 13.4 µM
RPMI-8226 leukemia
  GI50: 0.492 µM
  TGI: 2.18 µM
EKVX NSCLC
  GI50: 1.96 µM
  TGI: 4.14 µM
IGROV1 ovarian
  GI50: 1.48 µM
  TGI: 3.5 µM
UO-31 renal
  GI50: 1.66 µM
  TGI: 4.53 µM
HCT-15 colon
  GI50: 1.33 µM
  TGI: 3.13 µM
SK-OV-3 ovarian
  GI50: 0.977 µM
  TGI: 5.63 µM
RXF 393 renal
  GI50: 1.34 µM
  TGI: 2.85 µM
MALME-3M melanoma
  GI50: 4.34 µM
  TGI: 9.28 µM
CAKI-1 renal
  GI50: 1.11 µM
  TGI: 2.37 µM
NCI-H522 lung
  GI50: 0.581 µM
  TGI: 2.49 µM
SK-MEL-5 melanoma
  GI50: 5.09 µM
  TGI: 10.3 µM
DU-145 prostate
  GI50: 1.04 µM
  TGI: 2.56 µM
HS 578T breast
  GI50: 6.32 µM
  TGI: 15.8 µM
UACC-257 melanoma
  GI50: 16.3 µM
  TGI: 34.2 µM
SW-620 colon
  GI50: 0.452 µM
  TGI: 2.56 µM
SK-MEL-28 melanoma
  GI50: 1.75 µM
  TGI: 3.38 µM
M14 melanoma
  GI50: 1.35 µM
  TGI: 2.8 µM
ACHN renal
  GI50: 0.873 µM
  TGI: 2.36 µM
A498 renal
  GI50: 14.5 µM
  TGI: 29.2 µM
SF-295 CNS
  GI50: 0.274 µM
  TGI: 1.74 µM
KM12 colon
  GI50: 2.01 µM
  TGI: 5.72 µM
T-47D breast
  GI50: 3.73 µM
  TGI: 10.2 µM
SR leukemia
  GI50: 0.0576 µM
  TGI: 0.793 µM
PC-3 prostate
  GI50: 1.22 µM
  TGI: 2.87 µM
SF-268 CNS
  GI50: 0.95 µM
  TGI: 2.83 µM
LOX IMVI melanoma
  GI50: 0.36 µM
  TGI: 0.884 µM
U251 CNS
  GI50: 0.838 µM
  TGI: 2.87 µM
SNB-75 CNS
  GI50: 1.12 µM
  TGI: 2.64 µM
CCRF-CEM leukemia
  GI50: 0.0757 µM
  TGI: 3.55 µM
HCT-116 colon
  GI50: 1.05 µM
  TGI: 2.78 µM
UACC-62 melanoma
  GI50: 4.2 µM
  TGI: 12.5 µM
MCF7 breast
  GI50: 0.109 µM
  TGI: 1.87 µM
HL-60(TB) leukemia
  GI50: 0.525 µM
  TGI: 1.52 µM
SK-MEL-2 melanoma
  GI50: 18.4 µM
  TGI: 33.7 µM
MOLT-4 leukemia
  GI50: 0.0267 µM
  TGI: 1.91 µM
TK-10 renal
  GI50: 19 µM
  TGI: 33.7 µM
MDA-MB-231 breast
  GI50: 1.32 µM
  TGI: 2.78 µM
OVCAR-3 ovarian
  GI50: 1.51 µM
  TGI: 3.05 µM
NCI/ADR-RES ovarian
  GI50: 1.09 µM
  TGI: 3.61 µM
A549 NSCLC
  GI50: 1.3 µM
  TGI: 3.31 µM
COLO 205 colon
  GI50: 1.79 µM
  TGI: 6.62 µM
NCI-H460 lung
  GI50: 0.145 µM
  TGI: 1.66 µM
MDA-MB-435
  GI50: 1.59 µM
  TGI: 3.05 µM
OVCAR-4 ovarian
  GI50: 1.77 µM
  TGI: 3.33 µM
SNB-19 CNS
  GI50: 1.24 µM
  TGI: 3.18 µM
SN12C renal
  GI50: 1.48 µM
  TGI: 3.19 µM
SF-539 CNS
  GI50: 1.21 µM
  TGI: 2.56 µM
NCI-H226 lung
  GI50: 5.54 µM
  TGI: 26.1 µM
HT29 colon
  GI50: 1.28 µM
  TGI: 2.85 µM
OVCAR-8 ovarian
  GI50: 1.3 µM
  TGI: 3.61 µM
HCC-2998 colon
  GI50: 1.42 µM
  TGI: 2.82 µM
NCI-H23 lung
  GI50: 1.29 µM
  TGI: 3.19 µM
OVCAR-5 ovarian
  GI50: 1.89 µM
  TGI: 3.44 µM
HOP-62 NSCLC
  GI50: 0.393 µM
  TGI: 1.97 µM
K-562 leukemia
  GI50: 0.554 µM
  TGI: 3.22 µM
BT-549 breast
  GI50: 7.27 µM
  TGI: 22.5 µM
